# Measurements: patent US20250163072A1, “MACROCYCLIC COMPOUNDS FOR THE TREATMENT OF CANCER” (Hoffmann-La Roche Inc., priority 2021, published 2025)
# Assays:
# KRAS G12D in AGS cells = assay: pERK inhibition assay, AGS; type: cell-based, human; conditions: Homo sapiens, 4 hours incubation
# Experimental: (§1) This assay is to measure the ability of test compounds in inhibiting the phosphorylation of ERK, the downstream signaling of KRAS G12C in NCI-H358 cells, KRAS G12D in AGS cells, and KRAS G12V in SW620. NCI-H358 (ATCC-CRL5807) cells, AGS (ATCC-CRL-1739) cells, SW620 (ATCC-CCL-227) cells were all grown and maintained using RPMI-1640 medium (Thermo Fisher Scientific) with 10% fetal bovine serum and 1% penicillin/streptomycin. On the day prior to compound addition, cells were plated in tissue culture-treated 96 well plates (Corning-3699) at a density of 30,000 cell/well, 20,000 cell/well, 30,000 cell/well for NCI-H358, AGS and SW620 respectively, and allowed for attachment overnight. Diluted compounds were then added in a final concentration of 0.5% DMSO. After 4 hours of incubation, the medium was removed, 100 μL of 4% formaldehyde was added, and the assay plates were incubated at room temperature for 20 minutes. The plates were then washed once with phosphate buffered saline (PBS), and permeabilized with 100 μL of chilled methanol for 10 minutes. Non-specific antibody binding to the plates was blocked using 50 μL 1×BSA blocking buffer (Thermo-37520, 10-fold dilution by Phosphate-Buffered Saline Tween (PBST) for at least 1 hour at room temperature. The amount of phosphor-ERK was determined using an antibody specific for phosphorylated form of ERK. Primary antibody (pERK, CST-4370, Cell Signaling Technology) was diluted 1:300 in blocking buffer, with 50 μL aliquoted to each well, and incubated overnight at 4° C. Cells were washed five times for 5 minutes with PBST. Secondary antibody (HRP-linked anti-rabbit IgG, CST-7074, Cell Signaling Technology) was diluted 1:1000 in blocking buffer, and 50 μL was added to each well and incubated 1-2 hours at room temperature. Cells were washed 5 times for 5 minutes with PBST, 100 μL TMB ELISA substrate (abcam-ab171523) were added and gently shake for 20 minutes. 50 μL stop solution (abcam-ab171529) were added, and then read the signal (OD450) by EnVision. IC50 was determined by fitting a 4-parameter sigmoidal concentration response model.
# [1] = system: KRAS G12C in NCI-H358 cells; assay: pERK inhibition assay, NCI-H358; type: cell-based, human; conditions: Homo sapiens, 4 hours incubation
# Experimental: as §1
# KRAS G12V in SW620 = assay: pERK inhibition assay, SW620; type: cell-based, human; conditions: Homo sapiens, SW-620, SW620 cells, 4 hours incubation
# Experimental: as §1
# NCI-H358 cells = assay: Cell viability assay, NCI-H358; type: cell-based, human; conditions: Homo sapiens, NCI-H358, 72 hours, Cell Counting Kit-8, read-out: G12C IC50
# Experimental: (§2) The purpose of this cellular assay was to determine the effects of test compounds on the proliferation of human cancer cell lines NCI-H358 (ATCC-CRL5807) cells, AGS (ATCC-CRL-1739) cells, SW620 (ATCC-CCL-227) over a 3-day treatment period by quantifying the amount of NADPH present at endpoint using Cell Counting Kit-8. Cells were seeded at 5,000 cells/well (NCI-H358), 2,000 cells/well (AGS) 2,000 cells/well (SW620) in 96-well assay plates (Corning-3699) and incubated overnight. On the day of the assay, diluted compounds were then added in a final concentration of 0.5% DMSO. After 72 hours incubation, a tenth of the volume of cell counting kit 8(Dnjindo-CK04) was added into each well. Read the signal (OD450 minus OD650) using EnVision after 2 hours incubation. IC50 was determined by fitting a 4-parameter sigmoidal concentration response model.
# AGS cells = assay: Cell viability assay, AGS; type: cell-based, human; conditions: Homo sapiens, 72 hours, Cell Counting Kit-8, read-out: G12D IC50
# Experimental: as §2
# SW620 cells = assay: Cell viability assay, SW620; type: cell-based, human; conditions: Homo sapiens, SW-620, SW620, 72 hours, Cell Counting Kit-8, read-out: G12V IC50
# Experimental: as §2
# [2] = GSH reaction rates (inherent GSH reactivity); type: in vitro ADME
# Experimental: Therefore Strategy to minimize the GSH metabolism is very critical. Short T1/2 in inherent GSH reaction indicated high GSH reaction rate. Thus T1/2 in inherent GSH reaction assay was determined for the screening of candidates. Reference compounds and compounds of this invention potentially could form conjugation with GSH either through halogenated moieties substitution reaction or direct Michael addition reaction. This test was therefore performed to check GSH reactivity of listed compounds. For inherent GSH reactivity determination, compounds at 1 μM were incubated at 37° C. with and without 5 mM GSH for 0, 0.5, 1, 2, 4 and 6 h in 100 mM potassium phosphate buffer at pH 7.4. At the end of the designated time points, samples were quenched with acetonitrile containing 10 mM N-ethylmaleimide and an internal standard. Quenched samples were centrifuged, and supernatants were analyzed by LC-MS/MS for compound quantification.
# [3] = Human hepatocytes stability assay; type: in vitro ADME; conditions: for CL_hep (Human): 1 μM compound, human hepatocytes 1×10^6 cells/mL; for Clearance Category: human hepatocytes
# Experimental: The hepatocyte stability assay measures the rate of disappearance of a compound from incubations with cryopreserved suspension hepatocytes from human. Positive controls, including Midazolam, Raloxifene and Dextromethorphan, are included in every experiment. Incubations consist of 1 μM tested compound and suspension of human hepatocytes (1×10^6 cells/mL) in supplemented Williams' E Medium with […] and 0.5% Penicillin-streptomycin. The hepatocyte suspension was incubated with intermittent shaking 900 rpm at 37° C., in a 5% CO2 incubator. The reaction was stopped by adding methanol containing internal standard (2 μM Tolbutamide) at 2, 10, 20, 40, 60 and 120 minutes after compound addition, depletion of the parent compound was monitored by LC-MS/MS analysis.
Structure (SMILES),IC50 (KRAS G12D in AGS cells) [nM],IC50 [1] [nM],IC50 (KRAS G12V in SW620) [nM],IC50 (NCI-H358 cells) [nM],IC50 (AGS cells) [nM],IC50 (SW620 cells) [nM],"Remaining at 6 hr in GSH (%) ([2]; 6 h, 1 μM, pH 7.4)",CL_hep (Human) [3] [mL/min/kg],Clearance Category [3],"Remaining at 6 hr in GSH (%) ([2]; 1 μM compound, 5 mM GSH, 37° C., pH 7.4, 6 hr)","T1/2(hour) in GSH ([2]; 1 μM compound, 5 mM GSH, 37° C., potassium phosphate buffer pH 7.4)"
"CCn1c(-c2cccnc2[C@H](C)OC)c2c3cc(ccc31)-c1cc(O)cc(c1)C[C@H](NC(=O)[C@H](C(C)C)N(C)C(=O)C1CCN(C(=O)C#CCN3CCOCC3)C1)C(=O)N1CCC[C@H](N1)C(=O)OCC(C)(C)C2 (stereo partly shown) [RM018, reference compound]",> 10000,8,> 1000,4,> 10000,> 1000,,,,,
"C#CC1CCN(C(=O)N(C)[C@H](C(=O)N[C@H]2Cc3cc(O)cc(c3)-c3ccc4c(c3)c(c(-c3cccnc3[C@H](C)OC)n4CC)CC(C)(C)COC(=O)[C@@H]3CCCN(N3)C2=O)C(C)C)CC1 (atropisomer, axis not shown; (M)) [Example 15, N-[(1S)-1-[[(8S,14S)-22-ethyl-4-hydroxy-(21M)-21-[2-[(1S)-1-methoxyethyl]-3-pyridyl]-18,18-dimethyl-9,15-dioxo-16-oxa-10,22,28-triazapentacyclo[18.5.2.12,6.110,14.023,27]nonacosa-1(26),2,4,6(29),20,23(27),24-heptaen-8-yl]carbamoyl]-2-methyl-propyl]-4-ethynyl-N-methyl-piperidine-1-carboxamide]",291,32,67,89,1240,281,,,,,
"C#CC1(F)CCN(C(=O)N(C)[C@H](C(=O)N[C@H]2Cc3cc(O)cc(c3)-c3ccc4c(c3)c(c(-c3cccnc3[C@H](C)OC)n4CC)CC(C)(C)COC(=O)[C@@H]3CCCN(N3)C2=O)C(C)C)CC1 (atropisomer, axis not shown; (M)) [Example 16, N-[(1S)-1-[[(8S,14S)-22-ethyl-4-hydroxy-(21M)-21-[2-[(1S)-1-methoxyethyl]-3-pyridyl]-18,18-dimethyl-9,15-dioxo-16-oxa-10,22,28-triazapentacyclo[18.5.2.12,6.110,14.023,27]nonacosa-1(26),2,4,6(29),20,23(27),24-heptaen-8-yl]carbamoyl]-2-methyl-propyl]-4-ethynyl-4-fluoro-N-methyl-piperidine-1-carboxamide]",528,43,78,77,1170,294,,,,,
"CO[C@@H](C)c1ncccc1-c1c2c3cc(ccc3n1CC(F)(F)F)-c1csc(n1)C[C@H](NC(=O)[C@H](C(C)C)N(C)C(=O)[C@H]1CCN(C(=O)[C@H](F)Cl)C1)C(=O)N1CCC[C@H](N1)C(=O)OCC(C)(C)C2 (atropisomer, axis not shown; (M)) [Example 22, (3S)-1-[(2R)-2-chloro-2-fluoro-acetyl]-N-[(1S)-1-[[(7S,13S)-(20M)-20-[2-[(1S)-1-methoxyethyl]-3-pyridyl]-17,17-dimethyl-8,14-dioxo-21-(2,2,2-trifluoroethyl)-15-oxa-4-thia-9,21,27,28-tetrazapentacyclo[17.5.2.12,5.19,13.022,26]octacosa-1(25),2,5(28),19,22(26),23-hexaen-7-yl]carbamoyl]-2-methyl-propyl]-N-methyl-pyrrolidine-3-carboxamide]",199,55,102,16.3,868,255,,,,,
CCn1c(-c2cccnc2COC)c2c3cc(ccc31)-c1cc(O)cc(c1)C[C@H](NC(=O)[C@H](C(C)C)N(C)C(=O)C1CN(C(=O)[C@H](F)Cl)C1)C(=O)N1CCC[C@H](N1)C(=O)OCC(C)(C)C2 [RM461-A],> 10000,49,7020,45,7920,6880,100,5.5,low (CL_hep (mL/min/kg)<6.96 is low clearance),,
"CO[C@@H](C)c1ncc(N2CCN(C)CC2)cc1-c1c2c3cc(ccc3n1CC(F)(F)F)-c1csc(n1)C[C@H](NC(=O)[C@H](C(C)C)N1CC[C@]3(CCN(C(=O)[C@H](F)Cl)C3)C1=O)C(=O)N1CCC[C@H](N1)C(=O)OCC(C)(C)C2 [Example 23, (2S)-2-[(5S)-7-[(2R)-2-chloro-2-fluoro-acetyl]-1-oxo-2,7-diazaspiro[4.4]nonan-2-yl]-N-[(7S,13S)-(20M)-20-[2-[(1S)-1-methoxyethyl]-5-(4-methylpiperazin-1-yl)-3-pyridyl]-17,17-dimethyl-8,14-dioxo-21-(2,2,2-trifluoroethyl)-15-oxa-4-thia-9,21,27,28-tetrazapentacyclo[17.5.2.12,5.19,13.022,26]octacosa-1(25),2,5(28),19,22(26),23-hexaen-7-yl]-3-methyl-butanamide]",18,2,8,< 0.6,3410,15,,7.9,medium (16.24<CL_hep (mL/min/kg)>6.96 is medium clearance),95,"stable (If % depletion after 6 hour incubation is less than 20%, compounds were reported as stable)"
"CCn1c(-c2cccnc2[C@H](C)OC)c2c3cc(ccc31)-c1cc(O)cc(c1)C[C@H](NC(=O)[C@H](C(C)C)N(C)C(=O)[C@H]1CCN(C(=O)C(C)=O)C1)C(=O)N1CCC[C@H](N1)C(=O)OCC(C)(C)C2 (atropisomer, axis not shown; (M)) [Example 5, (3S)-N-[(1S)-1-[[(8S,14S)-22-ethyl-4-hydroxy-(21M)-21-[2-[(1S)-1-methoxyethyl]-3-pyridyl]-18,18-dimethyl-9,15-dioxo-16-oxa-10,22,28-triazapentacyclo[18.5.2.12,6.110,14.023,27]nonacosa-1(26),2,4,6(29),20,23(27),24-heptaen-8-yl]carbamoyl]-2-methyl-propyl]-N-methyl-1-(2-oxopropanoyl)pyrrolidine-3-carboxamide]",105,8,26,77,226,57,,,,,
